Like-named read-outs stand apart in the source and are kept apart here.
What was measured:
[1] = Serum PTH pharmacokinetics after oral and buccal administration to rats; type: in vivo, Male Sprague Dawley rats; conditions: rat, 0.2 mg/kg PTH with 200 mg/kg monosodium 4-MOAC; for AUC(0-inf) / AUC(0-t) / Cmax / Tmax: male, Sprague Dawley, serum, 0.2 mg/kg
Method: A stock solution of human recombinant PTH (1-34) was prepared by dissolving hPTH (1-34) (Eli Lilly, Indianapolis, Ind.) in deionized water to a concentration of 4 mg/ml. A stock solution of delivery agent was prepared by dissolving the delivery agent in deionized water. The pH of the resulting delivery agent solution was adjusted to between 7.5 and 8.5. A liquid buccal dosage form was prepared by mixing the PTH stock solution with the delivery agent stock solution immediately prior to dosing. For the present example, four dosage forms were prepared as described below.
The dosage forms were administered to Male Sprague Dawley rats, ranging in weight from about 250 g to about […]. Each rat was anesthesized with 2% isofiurane in pure oxygen during the whole experiment. The femoral artery was cannulated for blood sampling. The esophagus was ligated to prevent wallowing of the dosing solution. The trachea was intubated and the rat was provided with a constant flow of 2% isofiurane in oxygen.
The liquid dosage form was administered by inserting a T-shaped dosing tool into the mouth of the rat. The center of the dosing tool was placed under the tongue and the liquid dosage form (approximately […] body weight) was administered by syringe through the dosing tool, such that the dosage was distributed evenly throughout the buccal area. Following administration, the mouth was glued shut. Blood samples were drawn at predetermined periods from the femoral artery and assayed for PTH. The liquid dosage solution was allowed to remain in the buccal area for 90 minutes (e.g., the dosing duration). After 90 minutes the liquid dosage solution was removed from the buccal area by syringe.
The concentration of PTH was determined using a PTH (1-34) immunradiometric assay kit (Immutopics, San Clemente, Calif.). Samples were prepared by storage for 20 minutes between 2° C. and 8° C., followed by centrifugation at 10,000 G for 10 minutes to obtain serum. The serum concentration of PTH was than determined using a PTH (1-34) immunradiometric assay kit.
A liquid dosage form was prepared as described above wherein the dosage amount of monosodium 4-MOAC was 200 mg/kg and the dosage amount of PTH was 0.2 mg/kg. The dosage form was administered buccally as described above. Oral administration was carried out by anesthetizing the rat with a mixture of ketamine (44 mg/kg) and thorazine (1.5 mg/kg), followed by administration of the oral dosage by a gavaging trocar. The dosing duration for buccal administration was 5 and 60 minutes respectively. Blood samples were drawn from the rat as described above and the serum concentration of PTH was determined as described previously.

[2] = Pharmacokinetics after buccal, oral and subcutaneous administration of PTH to dogs; type: in vivo; conditions: dog; for AUC(0-t) / Cmax / Tmax / F rel: in vivo; for F rel: bioavailability relative to subcutaneous administration, read-out: AUC0−>t BA (%)
Method: The animal was moderately sedated using 0.4-0.8 mg/kg midazolam (IM) and 0.03-0.04 mg/kg medetomidine IV or IM in order to minimize the risk of the animal swallowing the test material. The level of sedation was continuously monitored and respiratory rate and general activity level was noted. Once adequately sedated, the dog was moved to a flat surface and an intravenous catheter was placed in the cephalic vein. For dose application, the dog was placed on its side with its head and jaw angled to maximally hold the test material in the mouth.
For an aqueous dosing solution, a syringe filled with the dosing solution (up to 1.5 ml) was placed sublingually and infused slowly up to 0.75 ml in an equal amount at the right and left space under the tongue of the dog. For sublingual tablet, the tablets were placed under the tongue and up to 1.5 ml of saline was administered to facilitate the sublingual dissolution. On one hour post-administration, any remaining formulation was removed by syringe aspiration and the area was rinsed once with saline solution and the saline solution that was then removed by a syringe aspiration.
Once the animal recovered from the sedatives, restraint-acclimated animals was restrained using a sling for the duration of the experiment. Blood samples were collected at specific time-points, i.e., 0, 0.25, 0.5, 1, 1.5, 2, 2.5 and up to 4 hours.
For comparison of the dosing route with intraoral delivery, an oral tablet dosing study was followed. The equivalent dose of drug and carrier was prepared to be the oral formulation of tablets that were gavaged, and 1 ml of water was administered into the gavaging tubing.
The final two columns in Table 2 show the relative bioavailability to subcutaneous administration by buccal and oral administrations of PTH to dog, and the respective coefficient of variations.

[3] = buccal 5 min dosing duration versus oral
[4] = buccal 60 min dosing duration versus oral
[5] = buccal (sublingual), formulation removed one hour post-administration

SMILES: CC[C@H](C)[C@H](NC(=O)[C@H](CCC(=O)O)NC(=O)[C@H](CO)NC(=O)[C@@H](NC(=O)[C@@H](N)CO)C(C)C)C(=O)N[C@@H](CCC(N)=O)C(=O)N[C@@H](CC(C)C)C(=O)N[C@@H](CCSC)C(=O)N[C@@H](Cc1cnc[nH]1)C(=O)N[C@@H](CC(N)=O)C(=O)N[C@@H](CC(C)C)C(=O)NCC(=O)N[C@@H](CCCCN)C(=O)N[C@@H](Cc1cnc[nH]1)C(=O)N[C@@H](CC(C)C)C(=O)N[C@@H](CC(N)=O)C(=O)N[C@@H](CO)C(=O)N[C@@H](CCSC)C(=O)N[C@@H](CCC(=O)O)C(=O)N[C@@H](CCCN=C(N)N)C(=O)N[C@H](C(=O)N[C@@H](CCC(=O)O)C(=O)N[C@@H](Cc1c[nH]c2ccccc12)C(=O)N[C@@H](CC(C)C)C(=O)N[C@@H](CCCN=C(N)N)C(=O)N[C@@H](CCCCN)C(=O)N[C@@H](CCCCN)C(=O)N[C@@H](CC(C)C)C(=O)N[C@@H](CCC(N)=O)C(=O)N[C@@H](CC(=O)O)C(=O)N[C@H](C(=O)N[C@@H](Cc1cnc[nH]1)C(=O)N[C@@H](CC(N)=O)C(=O)N[C@@H](Cc1ccccc1)C(=O)O)C(C)C)C(C)C [PTH, human recombinant PTH (1-34)]
- AUC(0-inf) ([1]; buccal, 5 min dosing duration): 2.8 ng·h/mL
- AUC(0-t) ([1]; buccal, 5 min dosing duration): 0.975 ng·h/mL
- Cmax ([1]; buccal, 5 min dosing duration): 1.7 ng/mL
- Tmax ([1]; buccal, 5 min dosing duration): 5 min
- AUC(0-inf) ([1]; buccal, 60 min dosing duration): 3.44 ng·h/mL
- AUC(0-t) ([1]; buccal, 60 min dosing duration): 1.29 ng·h/mL
- Cmax ([1]; buccal, 60 min dosing duration): 1.82 ng/mL
- Tmax ([1]; buccal, 60 min dosing duration): 15 min
- AUC(0-inf) ([1]; po, oral gavage): 2.62 ng·h/mL
- AUC(0-t) ([1]; po, oral gavage): 10.4 ng·h/mL
- Cmax ([1]; po, oral gavage): 1.43 ng/mL
- Tmax ([1]; po, oral gavage): 15 min
- Buccal:Oral AUC0−>t Ratio [1, 3]: 0.94
- Buccal:Oral AUC0−>∞ Ratio [1, 3]: 1.1
- Buccal:Oral AUC0−>t Ratio [1, 4]: 1.2
- Buccal:Oral AUC0−>∞ Ratio [1, 4]: 1.3
- AUC0−>t BA (%) ([2]; subcutaneous (reference route)): 100%
- AUC(0-t) ([2]; sc, subcutaneous): 8.47 ng·h/mL
- Cmax ([2]; sc, subcutaneous): 6.39 ± 1.97 ng/mL
- Tmax ([2]; sc, subcutaneous): 26 min
- AUC(0-t) [2, 5]: 2.82 ng·h/mL
- Cmax [2, 5]: 3.35 ± 2.65 ng/mL
- Tmax [2, 5]: 62 min
- F rel ([2]; buccal): 3.3%
- AUC(0-t) ([2]; oral tablets gavaged): 0.41 ng·h/mL
- Cmax ([2]; oral tablets gavaged): 0.632 ± 0.568 ng/mL
- Tmax ([2]; oral tablets gavaged): 23 min
- F rel ([2]; oral): 4.8%
